The text below walks through data of ChEMBL document CHEMBL1129696, “5- and 7-oxa trinems: their synthesis and biological evaluation” (1996).

In brackets after ≈: the same amount, converted by molar mass. Some results are limits rather than exact numbers.

What all share (type): functional
Test [1] concerns Bacteroides fragilis. Briefly: In vitro antibacterial activity against Bacteroides fragilis 2017.
The subject of test [2] is Clostridium perfringens. The test can be described thus: In vitro antibacterial activity against Clostridium perfringens 615.
In test [3] the test system is Enterococcus faecalis. Briefly: In vitro antibacterial activity against Enterococcus faecalis 850.
The test system of test [4] is Escherichia coli. The test can be described thus: In vitro antibacterial activity agains Escherichia coli 1852.
The test system of test [5] is Streptococcus pneumoniae. Briefly: In vitro antibacterial activity against Streptococcus pneumoniae 3512.
The test system of test [6] is Staphylococcus aureus. The test can be described thus: In vitro antibacterial activity against Staphylococcus aureus 853.
Test [7] concerns Escherichia coli. The test can be described thus: In vitro antibacterial activity against Escherichia coli 1850.
Test [8] relates to Escherichia coli. The test can be described thus: In vitro antibacterial activity against Escherichia coli 1850.

As usually defined, the MIC is the least concentration at which growth counts as inhibited. Low readings indicate a more susceptible organism, high ones a less susceptible organism.

Consider `CO[C@H]1CCC[C@H]2C1=C(C(=O)O)N1C(=O)[C@H]([C@@H](C)O)[C@@H]21` [SANFETRINEM], for which the MIC in test [1] was 0.06 µg/mL (≈ 0.213 µM); in test [2], 0.03 µg/mL (≈ 0.107 µM); in test [3] it was 1 µg/mL (≈ 3.55 µM); in test [4] it was 0.5 µg/mL (≈ 1.78 µM); in test [5], less than 0.01 µg/mL; in test [6] it was 0.2 µg/mL (≈ 0.711 µM). The compound further registered an MIC in test [7] of 0.5 µg/mL (≈ 1.78 µM).
Consider `C[C@@H](O)[C@H]1C(=O)N2C(C(=O)[O-])=C3CCCC[C@@H]3[C@H]12.[K+]`, for which the MIC turned out to be 1 µg/mL in test [1]; 0.1 µg/mL in test [2]; 8 µg/mL in test [3]; 1 µg/mL in test [4]; 0.06 µg/mL in test [5]; 1 µg/mL in test [6]. This compound gave an MIC in test [7] of 1 µg/mL.
Turning to `C[C@@H](O)[C@H]1C(=O)N2C(C(=O)[O-])=C3CCCC[C@H]3[C@H]12.[K+]`, the MIC was determined as 0.5 µg/mL in test [1]; 1 µg/mL in test [2]; 16 µg/mL in test [3]; 2 µg/mL in test [8]; 2 µg/mL in test [4]; 0.5 µg/mL in test [5]. The compound further showed an MIC in test [6] of 1 µg/mL.
On to `C[C@@H](O)[C@H]1C(=O)N2C(C(=O)[O-])=C3COCC[C@H]3[C@H]12.[K+]`, for which the MIC was 0.1 µg/mL in test [1]; 2 µg/mL in test [2]; 32 µg/mL in test [3]; 4 µg/mL in test [4]; 0.1 µg/mL in test [5]; 2 µg/mL in test [6]. This compound also displayed an MIC in test [7] of 2 µg/mL.
For `C[C@@H](O)[C@H]1C(=O)N2C(C(=O)[O-])=C3CCCO[C@@H]3[C@H]12.[K+]`, the MIC in test [1] stood at 0.1 µg/mL; in test [2], 0.06 µg/mL; in test [3], 1 µg/mL; in test [4], 1 µg/mL; in test [5] it was 0.06 µg/mL; in test [6], 0.5 µg/mL. Also, it took 1 µg/mL to inhibit growth in test [7] (MIC).
`C[C@@H](O)[C@H]1C(=O)N2C(C(=O)[O-])=C3CCCO[C@H]3[C@H]12.[K+]`: the MIC in test [1] worked out at 0.2 µg/mL; in test [2], 1 µg/mL; in test [3], 16 µg/mL; in test [4], 4 µg/mL; in test [5], 0.2 µg/mL; in test [6] it was 1 µg/mL. Besides, 2 µg/mL was the least that counted as inhibitory in test [7] (MIC).
In the case of `C[C@@H](O)[C@H]1C(=O)N2C(C(=O)[O-])=C3COCC[C@@H]3[C@H]12.[K+]`, the MIC in test [1] worked out at 0.2 µg/mL; in test [2] it was 0.5 µg/mL; in test [3], 8 µg/mL; in test [4] it was 0.5 µg/mL; in test [5], 0.06 µg/mL; in test [6], 0.5 µg/mL. In test [7], this compound registered a minimal inhibitory concentration (MIC) of 0.5 µg/mL.
